The record followed here is patent publication US9096499B2, “Compounds for treatment of cell proliferative diseases” (Board of Regents, The University of Texas System, priority 2003, dated 2015).

Entries after “also recorded” stand apart in the source; their conditions may differ.

Test [1] concerns MM-1 MM cells. Nature of the test: MTT cell growth and survival assay, MM-1 MM cells. It counts as cell-based. The note with it: for IC50 / Growth and survival of MM1 cells (in words): 72 hours; for IC50: MTT assay, read-out: IC50 (μM) MM1; for Growth and survival of MM1 cells (in words): MTT, FIG. 2A/3A. The protocol: (§1) To determine the effect of AG and WP compounds on MM cell growth/survival, MM cells were incubated with the indicated concentration of AG or WP for 72 hours before cell growth and survival were estimated by MTT assay.
(§2) To determine the effect of AG and WP compounds on MM cell growth/survival MM cells were incubated with the indicated concentration of AG or WP for 72 hours before cell growth and survival were estimated by MTT assay.
(In general: Formazan colour is commonly taken as a measure of viable cells.)

For test [2], the system named is c-myc. Put plainly: c-myc protein expression by immunoblot in MM cells. The arrangement: key to C-Myc: (inhibition = ↓); (no effect) = —. It counts as cell-based. To be noted: for C-Myc: c-myc downregulation, immunoblot. The protocol: To determine the effect of compounds on both Stat3 activation and c-myc protein expression MM-1, OCI-My5 and U266 cells were incubated with 25 μM of AG1801, AG490, WP1038, WP1039, WP1051, or WP1052 for 2 hours before cells were stimulated with 2 ng/ml IL-6 for 10 min. Cell lysates were prepared and immunoblotted for p-Stat3, Stat3, c-myc and actin (as a control).
(§3) To determine the temporal effects and mechanism of action of AG490 and AG1801 action on c-myc expression in MM cells, MM-1 cells were incubated with 0, 25, or 50 μM of AG490 or AG1801 and harvested at 30, 60, or 120 min. Lysates were immunoblotted for c-myc or actin as a protein loading control. […] Semi-quantitative PCR was used to measure changes in c-myc mRNA extracted from cells treated for 30 min with AG1801 at 25 μM. GAPDH PCR was used as a control.
These compounds were evaluated for their signal inhibitory and anti-proliferative/apoptotic properties on multiple myeloma, lymphoma and chronic myelogenous leukemia cell lines. WP1015, WP1034, AG1801, and AG490 were tested across a range of concentrations (6,12, and 25 μM) for their ability to inhibit c-myc expression using immunoblots.
These immunoblots tested a range of concentrations (1.56-25 μM for WP compounds) and used β-actin as a control.

In test [3] the test system is OCI MM cells. Nature of the test: MTT cell growth and survival assay, OCI MM cells. The note with it: 72 hours; for IC50: MTT assay; for Growth and survival of OCI cells (in words): MTT, FIG. 2B/3B. It is filed as cell-based. The protocol: as §1, §2
Test [4] relates to U266 MM cells. Put plainly: MTT cell growth and survival assay, U266 MM cells. It counts as cell-based. To be noted: 72 hours; for Growth and survival of U266 cells (in words): MTT, FIG. 2C/3C; for IC50: Homo sapiens, U-266, MTT assay. The protocol:
as §1, §2

Test [5] has as its system Stat3. Put plainly: IL-6 mediated Stat3 activation (p-Stat3 immunoblot) in MM cells. It counts as cell-based. The arrangement: key to P-Stat 3: (inhibition = ↓); (no effect) = —. To be noted: for P-Stat 3: Stat3 inhibition, immunoblot. The method, then: (§4) To examine the effect of newly synthesized AG and WP compounds on cytokine-mediated Stat activation, multiple myeloma (MM-1) cells were pretreated with AG490 or AG1801 at 2.5, 12, and 25 μM concentrations (for 2 hr) before stimulating cells with IL-6 or IFN-α for 10 min. Stat3 and Stat1 expression and activation were examined by immunoblotting.
To determine the effect of compounds on both Stat3 activation and c-myc protein expression MM-1, OCI-My5 and U266 cells were incubated with 25 μM of AG1801, AG490, WP1038, WP1039, WP1051, or WP1052 for 2 hours before cells were stimulated with 2 ng/ml IL-6 for 10 min. Cell lysates were prepared and immunoblotted for p-Stat3, Stat3, c-myc and actin (as a control). Both Stat3 activation and c-myc expression were effected by WP and AG compounds.
On the technique in general: A western blot detects proteins with antibodies after separation by electrophoresis.

Test [6] deals with c-myc/Stat3. Put plainly: Stat3/c-myc inhibitory activity in MM-1 cells (FIG. 7). It counts as cell-based. An excerpt:
An improved inhibition of c-myc/Stat3 by WP1066, WP1130, and WP1129 was observed (FIG. 7). The compounds were compared with regard to their Stat3/c-myc inhibitory activity in MM-1 cells.

The test system of test [7] is MM colonies from bone marrow aspirates of MM patients. Nature of the test: Primary MM colony formation in methyl-cellulose. It is filed as cell-based, human. To be noted: 12 μM, 7 to 10 days. The method, then:
To determine whether these compounds effect primary MM colony growth bone marrow aspirates from MM patients were partially-purified by magnetic bead separation and analyzed for immunoglobulin heavy-chain gene rearrangement by PCR. Cells were grown as colonies in methyl-cellulose in the presence or absence of AG compound as noted for 7 to 10 days. Control colonies were examined for Ig heavy chain gene rearrangement to confirm the clonal nature of the population.

In test [8] the test system is c-myc mRNA. Nature of the test: Semi-quantitative PCR of c-myc mRNA in MM-1 cells. To be noted: 25 μM, 30 min. It counts as cell-based. The method, then:
as §3

Test [9] deals with IFN-α signaling. Put plainly: IFN-α signaling (Stat1) immunoblot in MM-1 cells. It counts as cell-based. To be noted: 12 and 25 μM, IFN-α 10 min. The method, then:
as §4

The test system of test [10] is OCI-My5 cells. Nature of the test: Caspase activation and PARP cleavage in OCI-My5 cells. It is filed as cell-based. The note with it: 12.5 and 25 μM. The method, then: To determine whether AG1801 effects caspase activation in MM cells, OCI-My5 cells were treated as described above before cell lysates were examined for casapase activation and PARP cleavage. […] At 12.5 and 25 μM, AG490 was ineffective in caspase activation and PARP clevage in these cells.

In test [11] the test system is Stat3. Put plainly: IL-6 mediated Stat3 activation immunoblot in LP cells. It is filed as cell-based. To be noted: 3-25 μM. The method, then:
(§5) Further studies were conducted to determine the dose and time dependent effects of these new compounds on IL-6 mediated Stat3 activation, c-myc protein expression and anti-proliferative of LP and other cell types.

Test [12] has as its system c-myc. Put plainly: c-myc protein immunoblot in LP non-Hodgkin lymphoma cells. To be noted: LP cells, 3-25 μM. It is filed as cell-based. The method, then: Additional cell types were examined for response to treatment with WP1066.
as §5

`N#C/C(=C\c1cccnc1)C(=O)NCc1ccccc1` [WP 1075]: the IC50 in test [1] is greater than 2.5 µM.
In the case of `C[C@@H]1C[C@@H]([C@H](O)CC2CC(=O)NC(=O)C2)C(=O)[C@@H](C)C1` [CHX, cycloheximide, reference compound], the “Suppression of c-myc protein expression” value in test [2] (1.56-25 μM WP compounds, CHX 0-30 min at much higher concentrations) is recorded as “did not result in the rapid reduction of c-myc”.
Regarding `N#C/C(=C\c1ccc(Cl)c([N+](=O)[O-])c1)C(=O)NCc1ccccc1` [WP 1077], in [1], the half-maximal inhibitory concentration (IC50) was found to be 2.5 µM.
`CN(C)c1ccc(/C=C(\C#N)C(=O)NCc2ccccc2)c([N+](=O)[O-])c1` [WP 1076]: the IC50 in [1] is greater than 2.5 µM.
Consider `C[C@@H](NC(=O)/C(C#N)=C/c1ccc([N+](=O)[O-])cc1)c1ccccc1` [WP 1034], for which, in test [3], the IC50 came out at 6.3 µM; the “Growth and survival of OCI cells (in words)” value was “effective in reducing the growth and survival; also recorded: demonstrated increased potency compared to AG490”. Also, in test [1], the IC50 is 3.5 µM; the “Growth and survival of MM1 cells (in words)” value was “effective in reducing the growth and survival; also recorded: demonstrated increased potency compared to AG490”. In test [4], the “Growth and survival of U266 cells (in words)” value was “effective in reducing the growth and survival; also recorded: demonstrated increased potency compared to AG490”; inhibition was half-maximal at 4.5 µM (IC50). Moreover, the C-Myc result in test [2] is “↓”.
`N#C/C(=C\c1cccc([N+](=O)[O-])c1)C(=O)NCc1ccccc1` [WP 1074]: the IC50 in test [1] is greater than 2.5 µM.
Turning to `C[C@H](NC(=O)/C(C#N)=C/c1ccc([N+](=O)[O-])cc1)c1ccccc1` [WP 1050], in test [3], the 50% inhibitory concentration (IC50) is greater than 12.5 µM; the “Growth and survival of OCI cells (in words)” value is on record as “demonstrated increased potency compared to AG490”. In [1], the IC50 turned out to be 2.1 µM; the “Growth and survival of MM1 cells (in words)” value is on record as “demonstrated increased potency compared to AG490”. Moreover, in test [4], the “Growth and survival of U266 cells (in words)” value is reported as “demonstrated increased potency compared to AG490”; 5 µM corresponded to half-maximal inhibition (IC50). Also, the C-Myc entry in test [2] is on record as “↓”.
Regarding `N#C/C(=C\c1cc(O)ccc1[N+](=O)[O-])C(=O)NCc1ccccc1` [WP 1073], the IC50 in test [1] was greater than 2.5 µM.
On to `C[C@H](NC(=O)/C(C#N)=C/c1ccc([N+](=O)[O-])c(O)c1)c1ccccc1` [WP 1051], for which the 50% inhibitory concentration (IC50) is greater than 12.5 µM in test [3], 5.5 µM in test [1] and 11.1 µM in test [4]. The C-Myc result in test [2] is “↓”. In test [5], the “P-Stat 3” value is on record as “↓”.
`CCC[C@H](NC(=O)/C(C#N)=C/c1cccc(Br)n1)c1ccccc1` [WP1130]: the “IC50 against MM-1 myeloma relative to WP1066” value in [1] (FIG. 6) is “even better than compound WP1066”. In addition, the “Inhibition of c-myc/Stat3” value in test [6] is recorded as “Strong inhibition”.
Regarding `C[C@@H](NC(=O)/C(C#N)=C/c1ccc([N+](=O)[O-])c(O)c1)c1ccccc1` [WP 1038], the half-maximal inhibitory concentration (IC50) was greater than 12.5 µM in test [3], 6.2 µM in test [1] and 11.8 µM in [4]. For the same compound, the C-Myc entry in [2] is given as “↓”. The “P-Stat 3” value in test [5] is “↓”.
Take `N#C/C(=C\c1ccc([N+](=O)[O-])cc1)C(=O)NCc1ccccc1` [AG 1801]: in [3], the IC50 is 12 µM; the “Growth and survival of OCI cells (in words)” value is “effective in reducing the growth and survival; also recorded: demonstrated increased potency compared to AG490”. In test [1], the IC50 was determined as 7.5 µM; the “Growth and survival of MM1 cells (in words)” value was “effective in reducing the growth and survival; also recorded: demonstrated increased potency compared to AG490”. In addition, in [4], the “Growth and survival of U266 cells (in words)” value was “effective in reducing the growth and survival; also recorded: demonstrated increased potency compared to AG490”; the IC50 stood at 9 µM. The “Inhibition of MM colony formation” value in test [7] is listed as “completely inhibited MM colony formation”. Besides, the “c-myc expression, temporal effects” value in [2] (MM-1 cells, 25 and 50 μM, 30, 60, 120 min) was “rapidly reduced c-myc expression”. The C-Myc result in test [2] is on record as “↓”. The “c-myc mRNA expression” value in test [8] is reported as “minimal effects”. Further, the “Suppression of IL-6 signaling (Stat3 activation)” value in test [5] (MM-1 cells, 2 hr pretreatment, 12 and 25 μM, IL-6 10 min) is recorded as “effective in suppressing IL-6 signaling”. Also, the “P-Stat 3” value in test [5] is “↓”. Moreover, the “Effect on IFN-α signaling” value in test [9] was “without effecting IFN-α”. In test [10], the “Caspase activation (caspase 3 and caspase 8)” value was “activated both upstream and downstream caspases”; the PARP cleavage result is reported as “increased PARP clevage”.
As for `N#C/C(=C\c1cccc(Br)n1)C(=O)NCc1ccccc1` [WP 1015], the “IL-6 mediated Stat3 activation” value in [11] is “blocked IL-6 mediated Stat3 activation”. Also, in [1], the IC50 was 1.9 µM. For the same compound, the c-myc expression entry in test [12] is “reduced c-myc expression”. Also, the “Inhibition of c-myc protein expression” value in test [2] (6, 12, 25 μM, AG490 up to 50 μM) was “more active than previously synthesized WP compounds”. Moreover, the C-Myc entry in test [2] is listed as “↓”. Further, the “Inhibition of Stat3 phosphorylation” value in [5] (MM-1 cells) is on record as “more effective in inhibiting Stat3 phosphorylation”.
For the compound `C[C@H](NC(=O)/C(C#N)=C/c1ccccn1)c1ccccc1` [WP 1065], the IC50 in test [1] was determined as 3 µM.

A word on the IC50: it is the concentration needed to halve the response being measured.
